In ChEMBL document CHEMBL1154360, “Cytotoxic and PTP1B inhibitory activities from Erythrina abyssinica” (Bioorg Med Chem Lett, 2009) one finds IC50 data, which are given here for 18 compounds.

As a reminder, the IC50 is the concentration that inhibits the measured activity by half.

Assay [1] has as its system MCF7. The experiment in a line: Cytotoxicity against human tamoxifen-resistant MCF7 cells by WST-1 assay. Type of assay: functional, cell-based. On the technique in general: Tetrazolium dyes change colour on reduction, which living cells bring about.
Assay [2] has as its system MDA-MB-231. The experiment in a line: Cytotoxicity against human MDA-MB-231 cells by WST-1 assay. Type of assay: functional, cell-based.
Assay [3] has as its system MCF7. The experiment in a line: Cytotoxicity against human MCF7 cells by WST-1 assay. Type of assay: functional, cell-based.
The test system of assay [4] is MCF7. Kind of assay: Cytotoxicity against human adriamycin- resistant MCF7 cells by WST-1 assay. Type of assay: functional, cell-based.
Assay [5] deals with T1, Tyrosine-protein phosphatase non-receptor type 1 (Homo sapiens, UniProt P18031).
T1 sequence (P18031 whole entry): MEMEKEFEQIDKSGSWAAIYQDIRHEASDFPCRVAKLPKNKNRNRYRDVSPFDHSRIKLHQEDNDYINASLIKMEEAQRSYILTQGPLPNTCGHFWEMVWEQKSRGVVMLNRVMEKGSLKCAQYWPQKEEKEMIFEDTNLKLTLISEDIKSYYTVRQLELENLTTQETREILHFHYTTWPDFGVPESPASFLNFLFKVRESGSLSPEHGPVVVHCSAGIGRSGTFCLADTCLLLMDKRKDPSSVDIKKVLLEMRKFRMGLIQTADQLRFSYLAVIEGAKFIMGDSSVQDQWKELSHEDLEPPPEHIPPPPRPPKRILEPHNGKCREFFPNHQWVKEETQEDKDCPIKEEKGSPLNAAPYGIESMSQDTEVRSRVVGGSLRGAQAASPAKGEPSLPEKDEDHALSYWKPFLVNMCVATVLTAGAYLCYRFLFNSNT
The experiment in a line: Inhibition of human recombinant PTP1B assessed as p-nitrophenol production.

As for `C[C@H]1[C@H](C)CC[C@]2(C(=O)O)CC[C@]3(C)C(=CC[C@@H]4[C@@]5(C)CC[C@H](O)C(C)(C)[C@@H]5CC[C@]43C)[C@H]12` [URSOLIC ACID], the IC50 in assay [1], in assay [2], in assay [3] and in assay [4] was above 30 µM throughout.
As for `CC/C(=C(\c1ccccc1)c1ccc(OCCN(C)C)cc1)c1ccccc1` [TAMOXIFEN], in assay [3], it took 11.4 µM to reach half-maximal inhibition (IC50).
Take `CC(C)=CCc1c(O)ccc2c1OC[C@H]1c3ccc4c(c3O[C@@H]21)OC(C)(C)C=C4` [ERYBREADIN D]: the values for the IC50 in assay [1], in assay [4] and in assay [5] were 7.8 µM, 12.7 µM and 6.4 µM, respectively.
With `COc1cc2c(cc1O)O[C@H]1c3cc(CC=C(C)C)c(O)cc3OC[C@@H]21` [ERYVARIN K], the IC50 in assay [1], in assay [2], in assay [3], in assay [4] and in assay [5] was above 30 µM each time.
In the case of `CC(C)=CCc1cc2c(cc1O)O[C@H]1c3ccc(O)cc3OC[C@@H]21` [SOPHORAPTEROCARPAN A], the IC50 in assay [1], in assay [2], in assay [3], in assay [4] and in assay [5] was above 30 µM in each case.
For the compound `COc1cc2c(cc1O)O[C@H]1c3cc(CC=C(C)C)c(OC)cc3OC[C@@H]21` [ERYTHRIBYSSIN C], the IC50 in assay [1], in assay [2], in assay [3], in assay [4] and in assay [5] was above 30 µM each time.
Consider `CC(C)=CCc1c(O)ccc2c1OC[C@H]1c3ccc4c(c3O[C@@H]21)C=CC(C)(C)O4` [ERYBREADIN B], for which the concentration for half-maximal inhibition (IC50) in assay [1] amounted to 6.2 µM; in assay [2], 7.7 µM; in assay [3], 11.8 µM; in assay [4], 5.6 µM; in assay [5] it was 4.2 µM.
As to `CC(C)=CCc1cc2c(cc1O)OC[C@H]1c3ccc4c(c3O[C@@H]21)C=CC(C)(C)O4` [FOLITENOL], the IC50 in assay [1] was found to be 18.8 µM; in assay [2], 16.7 µM; in assay [4], 10.8 µM; in assay [5] it was 7.8 µM.
With `CC(C)=CCc1c(O)ccc2c1OC[C@H]1c3ccc(O)cc3O[C@@H]21`, the IC50 in assay [1] is above 30 µM; in assay [2], above 30 µM; in assay [3], above 30 µM; in assay [4] it was above 30 µM; in assay [5], 19.5 µM.
Turning to `CC(C)=CCc1cc2c(cc1O)O[C@H]1c3ccc(O)c(CC=C(C)C)c3OC[C@@H]21` [ERYBREADIN C], the IC50 is 9.1 µM in assay [1]; 22.7 µM in assay [2]; 14.8 µM in assay [3]; 20.1 µM in assay [4]; 7.3 µM in assay [5].
In the case of `CCCCCCCCCCCCCCCC(=O)C1=C(O)[C@@H](CO)OC1=O`, the IC50 in assay [1], in assay [2], in assay [3] and in assay [4] was above 30 µM throughout.
Consider `CC1(C)C=Cc2cc3c(cc2O1)OC[C@H]1c2ccc(O)cc2O[C@@H]31` [NEORAUTENOL], for which the IC50 is above 30 µM in assay [1]; above 30 µM in assay [2]; above 30 µM in assay [3]; above 30 µM in assay [4]; 7.6 µM in assay [5].
On to `CC(C)=CCc1c(O)ccc2c1O[C@H]1c3ccc(O)cc3OC[C@@H]21` [PHASEOLLIDIN], for which the IC50 in assay [1], in assay [2], in assay [3], in assay [4] and in assay [5] was above 30 µM throughout.
Turning to `O=Cc1c(O)ccc2c1O[C@H]1c3ccc(O)cc3OC[C@@H]21` [ERYTHRIBYSSIN B], the IC50 in assay [1], in assay [2], in assay [3], in assay [4] and in assay [5] was above 30 µM in each case.
Regarding `COc1ccc2c(c1CC=C(C)C)O[C@H]1c3cc(CC=C(C)C)c(O)cc3OC[C@@]21O` [ERYSTAGALLIN A], the half-inhibitory concentration (IC50) in assay [1] is above 30 µM; in assay [2] it was above 30 µM; in assay [3], above 30 µM; in assay [4], above 30 µM; in assay [5], 20.8 µM.
Turning to `COc1ccc2c(c1CC=C(C)C)O[C@H]1c3ccc(O)cc3OC[C@@]21OC` [ERYTHRIBYSSIN A], the IC50 in assay [1] was 12 µM; in assay [2] it was 28 µM; in assay [3] it was 19.4 µM; in assay [4] it was 16.1 µM; in assay [5], 19.3 µM.
For `CC(C)=CCc1cc2c(cc1O)OC[C@H]1c3ccc(O)c(CC=C(C)C)c3O[C@@H]21` [ERYBRAEDIN C], the IC50 in assay [1], in assay [2], in assay [3], in assay [4] and in assay [5] was above 30 µM in each case.
`CC(C)=CCc1cc2c(cc1O)OC[C@@]1(O)c3ccc4c(c3O[C@@H]21)C=CC(C)(C)O4` [ERYSUBIN E]: the half-maximal inhibitory concentration (IC50) is above 30 µM in assay [1]; above 30 µM in assay [2]; above 30 µM in assay [3]; above 30 µM in assay [4]; 8.8 µM in assay [5].
